Experimental data published in patent publication US20220184003A1, “Formulations of Cannabidiol Derivatives and Their Use as Modulators of Cannabinoid Receptor Type 2 (CB2)” (EMERALD HEALTH PHARMACEUTICALS INC, priority 2019, published 2022).
In brackets after ≈: the same amount, converted by molar mass.

How the values were obtained:
[1] = physchem; conditions: pH 7.4
Source text: Lipophilicity is a key determinant of the PK behavior of drugs. It can influence distribution into tissues, absorption and the binding characteristics of a drug, as well as being an important factor in determining the solubility of a compound. Log D (distribution co-efficient) is used as a measure of lipophilicity.
The solution was transferred to tubes, centrifuged and the supernatant is drawn off the top, leaving any solid compound in the bottom. This supernatant was then syringe filtered through 0.2 μm filters to produce the initial solution. Three vials were prepared containing values. […] The vials were mixed to equilibrium, then centrifuged to ensure the two phases were fully separated before the octanol was removed and the buffer samples analyzed. For the quantitative analysis, the aqueous solutions were analyzed by LC MS/MS. The amount of VCE-004.8 in each vial was quantified against a 6 points standard curve which was produced by serially diluting the initial solution. Log D was calculated using the equation, shown in FIG. 7, wherein ConcINITlAL is a concentration of compound in the initial aqueous solution, ConcFINAL is a concentration of compound in final aqueous phase, Vaq is a volume of aqueous phase, and Voct is a volume of octanol phase.

[2] = test system: TGFβ-induced Col1A2 gene transcription and collagen synthesis; assay: TGFβ-induced fibrotic responses in vitro; type: cell-based
[3] = test system: cuprizone/rapamycin (C/R) mouse model; assay: Cuprizone/rapamycin model, myelin assessment in grey and white matter; type: in vivo, Male C57BL/6J
Protocol: Myelin assessment in grey and white matter was evaluated via: (1) PLP staining and density in the hippocampus and cortex; and (2) PPD staining and manual counts in the corpus callosum.
Male C57BL/6J (n=5 or 12/group) were treated for 12 weeks with C/R to cause demyelination of white and gray matter regions of the brain. […] Thereafter, the brains were harvested and processed for immunohistochemical staining and quantification of myelinated axons in gray matter (hippocampus (HIP), cerebral cortex (CTX)) by proteolipid protein (PLP) staining and white matter (corpus callosum CC)) by paraphenylenediamine (PPD) staining.

[4] = in vitro; type: in vitro ADME; conditions: plasma
[5] = target: CB1 receptor (Homo sapiens, UniProt P21554); assay: Receptor screening study, CB1 receptor affinity; type: binding
CB1 receptor, sequence (P21554 whole entry): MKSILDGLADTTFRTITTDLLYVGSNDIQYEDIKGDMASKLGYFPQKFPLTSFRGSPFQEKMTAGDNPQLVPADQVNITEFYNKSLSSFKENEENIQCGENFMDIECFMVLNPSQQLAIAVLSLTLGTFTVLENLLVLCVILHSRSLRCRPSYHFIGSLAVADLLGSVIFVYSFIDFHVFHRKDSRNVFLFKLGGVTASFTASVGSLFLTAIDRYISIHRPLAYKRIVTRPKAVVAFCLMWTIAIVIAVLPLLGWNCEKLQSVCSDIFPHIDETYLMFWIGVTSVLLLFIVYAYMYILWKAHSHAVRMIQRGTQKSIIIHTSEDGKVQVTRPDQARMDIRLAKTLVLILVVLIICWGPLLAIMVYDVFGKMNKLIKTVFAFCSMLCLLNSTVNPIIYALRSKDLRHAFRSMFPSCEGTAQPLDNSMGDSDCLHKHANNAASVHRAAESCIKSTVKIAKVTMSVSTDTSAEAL

[6] = test system: Theiler Murine Encephalomyelitis Virus-induced demyelmating disease model (TMEV); assay: TMEV model; type: in vivo, mice
Source text: 2) Theiler Murine Encephalomyelitis Virus-induced demyelmating disease model (TMEV) that mimics progressive forms of MS.

[7] = Solubility of VCE-004.8 and its phytosomes in buffer medium at various pH; type: physicochemical; conditions: 37 °C, thermodynamic from solid
Protocol: The solubility of Phytosome-VCE-004.8 was tested in buffer medium at various pH (1.2, 4, 5, 6, […] and 8.0). For each pH, independent supersaturated solutions of VCE-004.8 and its phytosomes were prepared. The suspensions w ere sonicated for 10 min and kept in a water bath at 37° C. for 2 hr. Then the final suspensions were filtered (with 0.45 PTFE disposable fitter) and the solutions were injected for HPLC analysis. […] The 1:2 ratio resulted to be slightly more soluble than the 1:1 ration, and the best behavior was shown at neutral and basic pH. Accordingly. Phytosome 1:2 was selected for following assessment of PK profile in rats (Formulation n°8). Phytosome 1:2 contained 24% of VCE-004.8 and was prepared in Methyl cellulose 1% in water for oral administration.

[8] = Stress test of VCE-004.8 drug substance; type: physicochemical
Protocol: A stress test was performed concluding that VCE-004.8 drug substance is stable for 3 days at 65° C.+/−5° C. in glass vials. […] A short-term stability study at 40° C. was completed with indecisive results due to the early development stage of the impurity method.

[9] = oral 5, 10, 20 mg/kg/day for 6 weeks, vs vehicle control

## C=C(C)C1CCC(C)=C[C@H]1C1=C(O)C(=O)C(CCCCC)=C(NCc2ccccc2)C1=O (stereo partly drawn) [VCE-004.8, (1′R,6′R)-3-(Benzylamine)-6-hydroxy-3′-methyl-4-pentyl-6′-(prop-1-en-2-yl)[1,1′-bi(cyclohexane)]-2′,3,6-triene-2,5-dione]
[1]
  logD: > 5
[2]
  TGFβ-induced Col1A2 gene transcription and collagen synthesis: inhibited
  TGFβ-mediated myofibroblast differentiation: inhibited
  wound-healing activity: impaired
[3]
  levels of myelinated axons in white matter (corpus callosum), dose relation: dose related effect
[3]; [9]
  area of PLP staining / myelination in the cortex: no significant increase
  area of PLP staining / myelination in the hippocampus: no significant increase
[4]
  fraction unbound: < 0.01
[5]; at a concentration of 10 μM (4336 ng/mL)
  affinity for the CB1 receptor: did not show affinity
[5]; receptor screening study
  affinity for the CB1 receptor: no detectable affinity
[6]; TMEV mice
  axonal disorganization: prevented
[6]; TMEV model, actimeter test
  clinical severity and neuropathology: attenuated
[6]; TMEV-infected mice
  microglial reactivity and infiltration of inflammatory cells: significantly reduced
[6]; mice infected with Theiler's virus
  motor deficits: ameliorated
[6]; spinal cord of TMEV mice
  demyelination: significantly reduced
  number of infiltrated CD4+ T cells and immune cells: reduced
[7]; pH 1.2, simulated gastric fluid
  solubility thermodynamic at 2 h: 5 ng/mL (≈ 11.5 nM)
[7]; pH 4.5, aqueous buffer
  solubility thermodynamic at 2 h: 5 ng/mL (≈ 11.5 nM)
[7]; pH 6.8, aqueous buffer
  solubility thermodynamic at 2 h: 3 ng/mL (≈ 6.92 nM)
[7]; pH 7.4, aqueous buffer
  solubility thermodynamic at 2 h: 1 ng/mL (≈ 2.31 nM)
[7]; pH 8, aqueous buffer
  solubility thermodynamic at 2 h: 1 ng/mL (≈ 2.31 nM)
[8]; 65° C.+/−5° C. in glass vials
  stress test: stable for: 3 days
[8]; stress test
  temperatures at which degradation of the product was observed: above 65 °C
